The values that follow come from ChEMBL document CHEMBL4351016 (Eur J Med Chem, 2019).

In experiment [1] the test system is LNCaP C4-2. Description: Antiproliferative activity against AR-positive human C4-2 cells assessed as growth inhibition after 72 hrs by resazurin dye based fluorescence assay. It is filed as functional. Conditions: LNCaP C4-2, 72 h.
Experiment [2] has as its target T1, Androgen receptor (Homo sapiens) (UniProt P10275).
T1 sequence (whole entry): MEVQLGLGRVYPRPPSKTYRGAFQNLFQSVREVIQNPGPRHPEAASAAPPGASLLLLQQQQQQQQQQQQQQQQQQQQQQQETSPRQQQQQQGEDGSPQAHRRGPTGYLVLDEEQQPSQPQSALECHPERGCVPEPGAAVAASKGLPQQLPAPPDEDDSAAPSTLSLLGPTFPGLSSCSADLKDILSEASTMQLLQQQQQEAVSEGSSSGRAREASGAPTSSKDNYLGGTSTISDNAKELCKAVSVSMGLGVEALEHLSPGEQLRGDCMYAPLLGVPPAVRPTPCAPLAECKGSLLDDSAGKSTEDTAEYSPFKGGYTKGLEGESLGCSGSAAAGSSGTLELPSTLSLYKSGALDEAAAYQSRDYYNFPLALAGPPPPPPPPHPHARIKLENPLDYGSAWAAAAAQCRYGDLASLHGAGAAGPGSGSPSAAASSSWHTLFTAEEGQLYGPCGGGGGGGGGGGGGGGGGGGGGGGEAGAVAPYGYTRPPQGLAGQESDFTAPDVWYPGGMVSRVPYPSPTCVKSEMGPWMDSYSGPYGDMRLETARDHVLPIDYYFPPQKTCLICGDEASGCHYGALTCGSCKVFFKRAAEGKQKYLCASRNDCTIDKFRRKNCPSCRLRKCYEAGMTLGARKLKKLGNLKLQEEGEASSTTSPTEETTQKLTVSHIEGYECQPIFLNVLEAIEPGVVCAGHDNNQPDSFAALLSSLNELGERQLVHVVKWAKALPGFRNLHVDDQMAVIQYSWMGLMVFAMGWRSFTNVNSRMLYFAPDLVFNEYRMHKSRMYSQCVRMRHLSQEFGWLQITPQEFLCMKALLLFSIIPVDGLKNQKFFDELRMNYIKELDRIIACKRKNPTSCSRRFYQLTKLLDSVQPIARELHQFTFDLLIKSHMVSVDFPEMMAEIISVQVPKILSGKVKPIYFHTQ
Description: Inhibition of R1881-stimulated AR transcriptional activity in AR-positive human VCaP cells assessed as decrease in PSA protein expression at 20 uM after 48 hrs by immunoblot analysis. Type of experiment: cell-based.

For experiment [3], the system named is CWR22R. As to the kind of experiment: Induction of apoptosis in R1881-activated AR-positive human 22Rv1 cells harboring ARE14 construct assessed as cleaved PARP level at 5 uM after 24 hrs by immunoblot analysis. Type of experiment: functional, cell-based.
Experiment [4] concerns PC-3. As to the kind of experiment: Antiproliferative activity against AR-negative human PC3 cells assessed as growth inhibition after 72 hrs by resazurin dye based fluorescence assay. As to conditions: PC-3, 72 h. It is filed as functional. (In general: Resazurin is reduced to fluorescent resorufin, in cell work by metabolically active cells.)
The target in experiment [5] is T1, Androgen receptor (Homo sapiens). Description: Inhibition of R1881-stimulated AR transcriptional activity in AR-positive human VCaP cells assessed as PSA protein expression at 20 uM after 24 hrs by immunoblot analysis. It is filed as cell-based. (In western blotting, separated proteins are transferred to a membrane and probed.)
In experiment [6] the test system is CWR22R. As to the kind of experiment: Antiproliferative activity against AR-positive human 22Rv1 cells harboring ARE14 construct assessed as growth inhibition after 72 hrs by resazurin dye based fluorescence assay. It is filed as functional. As to conditions: 22Rv1, 72 h.
The target in experiment [7] is T2, Androgen receptor (Homo sapiens, UniProt P10275).
T2 sequence (P10275 whole entry): T1 sequence (whole entry)
As to the kind of experiment: (§1) Inhibition of R1881 induced-AR transcriptional activity in AR-positive human 22Rv1 cells harboring ARE14 construct after 24 hrs by luciferase assay.

Experiment [8] concerns the target T1, Androgen receptor (Homo sapiens). The experiment is described as §1.
The target is the same in experiment [9]. Description: Inhibition of R1881-stimulated AR transcriptional activity in AR-positive human VCaP cells assessed as NKX3.1 protein expression at 20 uM after 24 hrs by immunoblot analysis. It is filed as cell-based.
Experiment [10] deals with CWR22R. As to the kind of experiment: Antiproliferative activity against AR-positive human 22Rv1 cells harboring ARE14 construct assessed as growth inhibition after 24 hrs by resazurin dye based fluorescence assay. Type of experiment: functional. Conditions: 22Rv1, 24 h.
The test system of experiment [11] is CWR22R. Description: Effect on AR-V7 protein expression in AR-positive human 22Rv1 cells harboring ARE14 construct at 5 uM after 24 hrs by immunoblot analysis. Type of experiment: functional, cell-based.
For experiment [12], the target named is T1, Androgen receptor (Homo sapiens). As to the kind of experiment: Inhibition of R1881-stimulated AR transcriptional activity in AR-positive human VCaP cells assessed as decrease in NKX3.1 protein expression at 20 uM after 48 hrs by immunoblot analysis. It is filed as cell-based.
Experiment [13] has the same target. Description: Inhibition of R1881 induced-AR transcriptional activity in AR-positive human 22Rv1 cells harboring ARE14 construct assessed as suppression of PSA expression at 5 uM after 24 hrs by immunoblot analysis.
The test system of experiment [14] is VCaP. As to the kind of experiment: Induction of apoptosis in R1881-stimulated AR-positive human VCaP cells assessed as PARP cleavage at 20 uM after 24 to 72 hrs by immunoblot analysis. It is filed as functional, cell-based.
Experiment [15] concerns the target T1, Androgen receptor (Homo sapiens). Conditions: at 10 µM.
Description: Inhibition of R1881 induced-AR transcriptional activity in AR-positive human 22Rv1 cells harboring ARE14 construct at 10 uM after 24 hrs by luciferase assay relative to control
The subject of experiment [16] is VCaP. Description: Downregulation of AR protein expression in R1881-stimulated AR-positive human VCaP cells at 20 uM after 48 hrs by immunoblot analysis. Type of experiment: functional, cell-based.
In experiment [17] the test system is VCaP. Description: Antiproliferative activity against AR-positive human VCaP cells assessed as growth inhibition after 72 hrs by resazurin dye based fluorescence assay. It is filed as functional.
Experiment [18] has as its system BJ. As to the kind of experiment: Antiproliferative activity against human BJ cells assessed as growth inhibition after 24 hrs by resazurin dye based fluorescence assay. Type of experiment: functional.
Experiment [19] concerns VCaP. Description: Induction of apoptosis in R1881-stimulated AR-positive human VCaP cells assessed as caspase-3/7 activation at 20 uM using Ac-DEVD-AMC as substrate after 24 to 72 hrs by fluorescence based microplate reader analysis. Type of experiment: functional, cell-based.
Experiment [20] deals with T1, Androgen receptor (Homo sapiens). As to the kind of experiment: Inhibition of AR transcriptional activity in AR-positive human 22Rv1 cells harboring ARE14 construct assessed as downregulation of NKX3.1 protein expression at 5 uM after 24 hrs by immunoblot analysis.
Experiment [21] deals with CWR22R. Description: Inhibition of colony formation in AR-positive human 22Rv1 cells harboring ARE14 construct at 0.625 to 10 uM incubated for 10 days by crystal violet staining based analysis. It is filed as functional, cell-based.
Experiment [22] addresses T1, Androgen receptor (Homo sapiens). As to the kind of experiment: Inhibition of R1881 induced-AR transcriptional activity in AR-positive human 22Rv1 cells harboring ARE14 construct assessed as suppression of NKX3.1 expression at 5 uM after 24 hrs by immunoblot analysis.
In experiment [23] the test system is VCaP. As to the kind of experiment: Antiproliferative activity against AR-positive human VCaP cells assessed as cell viability at 40 uM after 72 hrs by resazurin dye based fluorescence assay. Type of experiment: functional. As to conditions: read-out: Activity.
The subject of experiment [24] is LNCaP C4-2. As to the kind of experiment: Antiproliferative activity against AR-positive human C4-2 cells assessed as cell viability at 40 uM after 72 hrs by resazurin dye based fluorescence assay. Conditions: LNCaP C4-2, 72 h, read-out: Activity. Type of experiment: functional.
In experiment [25] the test system is CWR22R. As to the kind of experiment: Antiproliferative activity against AR-positive human 22Rv1 cells harboring ARE14 construct assessed as cell viability at 40 uM after 72 hrs by resazurin dye based fluorescence assay. Type of experiment: functional. Conditions: 22Rv1, 72 h, read-out: Activity.
Experiment [26] has as its system PC-3. As to the kind of experiment: Antiproliferative activity against AR-negative human PC3 cells assessed as cell viability at 40 uM after 72 hrs by resazurin dye based fluorescence assay. Conditions: PC-3, 72 h, read-out: Activity. Type of experiment: functional.

pIC50: −log10 of the molar value. The source made the active and inactive calls. The calls are words filed in the database; no cut-off is given here.

The term GI50 denotes the concentration that inhibits growth by half. What is called inhibition is how much of the control response was suppressed. Broadly, the pIC50 is the negative decadic logarithm of the IC50, by convention in mol/L.

On to `CC(=O)O[C@H]1CC[C@@]2(C)C(=CC[C@@H]3[C@@H]2CC[C@]2(C)c4c(C)nc5[nH]c6ccccc6c5c4C[C@@H]32)C1`, for which the GI50 is 1.7 µM in [1]; > 100 µM in experiment [4]; 1.4 µM in experiment [6]; > 50 µM in [10]; 2 µM in experiment [17]; > 50 µM in [18]. For the same compound, the inhibition entry in [2], in experiment [12], in experiment [13], in experiment [16], in [21] and in experiment [22] was “Active” in each case. The result in experiment [3] and in experiment [11] was inactive. Further, the inhibition entry in experiment [5] and in experiment [9] was “inactive” each time. The negative-log IC50 (pIC50) in experiment [7] is 6.50. Moreover, the inhibition entry was “Dose-dependent effect” in [8] and 29% in [15]. The outcome in experiment [14] and in experiment [19] was Active. The “NKX3.1 protein downregulation (active/not active)” value in [20] is “Active”.

With `C[C@]12CC[C@H](O)CC1=CC[C@@H]1[C@@H]2CC[C@]2(C)C(n3cnc4ccccc43)=CC[C@@H]12` [GALETERONE], the GI50 was > 40 µM in [1], 37.7 µM in experiment [4], 37.8 µM in experiment [6] and > 40 µM in [17]. For the same compound, the viability at 40 µM in [23] stood at 57.2%; in [24], 74.3%.

With `CNC(=O)c1ccc(N2C(=S)N(c3ccc(C#N)c(C(F)(F)F)c3)C(=O)C2(C)C)cc1F` [ENZALUTAMIDE], the GI50 in experiment [1], in experiment [4], in [6] and in [17] was > 40 µM in each case. In addition, the viability at 40 µM in [23] worked out at 61.2%; in [25], 84%; in [24], 91.5%; in experiment [26], 74%.
